Measured values as given in patent US5786371A, “Pyridine and pyridazine derivatives, processes for the production thereof and pharmaceutical agents containing these compounds” (Boehringer Mannheim GmbH, priority 1995, dated 1998).
Read-outs that look alike come from different tables or passages of the source.

Molecular target: GpIIb/IIIa receptor (Homo sapiens, UniProt P05106+P08514)
Experiment: GpIIb/IIIa-Fibrinogen-Elisa (inhibition of fibrinogen-GpIIb/IIIa interaction)
Format: binding
Details: 1 hour incubation, optical density at 405 nm
Method: Microtitre plates are coated overnight with 2 μg/ml isolated activated GpIIb/IIIa receptor. After removing the unbound receptor by washing several times, the surface of the plates is blocked with 1% casein and washed again. The test substance is added in the required concentrations and the plates are incubated for 10 minutes while shaking. The natural ligand of the gpIIb/IIIa receptor, fibrinogen, is added. After 1 hour of incubation the unbound fibrinogen is removed by washing several times and the bound fibrinogen is determined by a peroxidase-conjugated anti-fibrinogen monoclonal antibody by measuring the optical density at 405 nm in an ELISA instrument. Inhibition of a fibrinogen-GpIIb/IIIa interaction results in a low optical density. An IC50 is calculated based on a concentration-effect curve.
The GpIIb/IIIa-Fibrinogen-Elisa is a modification of assays described in the following literature:
Nachman, R. L. & Leung, L. L. K. (1982): Complex formation of platelet membrane glycoproteins IIb and IIIa with fibrinogen. J. Clin. Invest. 69:263-269. Wright, P. S. et al. (1993): An echistatin C-terminal peptide activated GpIIbIIIa binding to fibrinogen, fibronectin, vitronectin and collagen type I and type IV. Biochem. J. 293:263-267.

[1] = isolated activated GpIIb/IIIa receptor on microtitre plates, read-out: IC50

Chain of GpIIb/IIIa receptor (P08514 32-887 limits assumed): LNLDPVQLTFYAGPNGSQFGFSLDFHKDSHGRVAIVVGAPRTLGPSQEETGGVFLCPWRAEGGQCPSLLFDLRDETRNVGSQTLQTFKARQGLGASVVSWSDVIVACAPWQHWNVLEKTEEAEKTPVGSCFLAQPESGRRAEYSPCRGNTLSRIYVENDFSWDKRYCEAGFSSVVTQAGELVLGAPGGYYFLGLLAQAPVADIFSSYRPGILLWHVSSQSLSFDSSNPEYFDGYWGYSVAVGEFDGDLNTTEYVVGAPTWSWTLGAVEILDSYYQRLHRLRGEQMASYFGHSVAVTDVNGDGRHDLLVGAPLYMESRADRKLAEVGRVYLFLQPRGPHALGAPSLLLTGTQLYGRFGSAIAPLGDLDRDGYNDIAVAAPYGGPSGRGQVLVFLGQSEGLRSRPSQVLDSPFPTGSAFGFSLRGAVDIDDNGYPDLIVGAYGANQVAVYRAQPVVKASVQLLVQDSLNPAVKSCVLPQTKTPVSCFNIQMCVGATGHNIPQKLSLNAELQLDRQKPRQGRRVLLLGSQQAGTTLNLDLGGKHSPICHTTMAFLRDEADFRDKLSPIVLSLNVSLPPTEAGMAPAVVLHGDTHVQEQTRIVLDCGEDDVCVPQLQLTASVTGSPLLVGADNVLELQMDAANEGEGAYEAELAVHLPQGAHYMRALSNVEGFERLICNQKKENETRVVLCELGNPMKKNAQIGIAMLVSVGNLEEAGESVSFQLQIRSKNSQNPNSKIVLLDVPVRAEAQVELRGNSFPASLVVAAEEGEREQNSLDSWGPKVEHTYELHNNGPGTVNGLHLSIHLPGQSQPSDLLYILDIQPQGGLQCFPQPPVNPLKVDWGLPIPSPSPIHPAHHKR
Chain of GpIIb/IIIa receptor (P08514 891-1039 limits assumed): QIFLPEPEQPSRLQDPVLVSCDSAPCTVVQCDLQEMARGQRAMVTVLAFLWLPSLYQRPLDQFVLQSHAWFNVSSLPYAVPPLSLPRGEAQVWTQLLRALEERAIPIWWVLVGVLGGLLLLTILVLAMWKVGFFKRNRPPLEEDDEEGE
Chain of GpIIb/IIIa receptor (P05106 27-788): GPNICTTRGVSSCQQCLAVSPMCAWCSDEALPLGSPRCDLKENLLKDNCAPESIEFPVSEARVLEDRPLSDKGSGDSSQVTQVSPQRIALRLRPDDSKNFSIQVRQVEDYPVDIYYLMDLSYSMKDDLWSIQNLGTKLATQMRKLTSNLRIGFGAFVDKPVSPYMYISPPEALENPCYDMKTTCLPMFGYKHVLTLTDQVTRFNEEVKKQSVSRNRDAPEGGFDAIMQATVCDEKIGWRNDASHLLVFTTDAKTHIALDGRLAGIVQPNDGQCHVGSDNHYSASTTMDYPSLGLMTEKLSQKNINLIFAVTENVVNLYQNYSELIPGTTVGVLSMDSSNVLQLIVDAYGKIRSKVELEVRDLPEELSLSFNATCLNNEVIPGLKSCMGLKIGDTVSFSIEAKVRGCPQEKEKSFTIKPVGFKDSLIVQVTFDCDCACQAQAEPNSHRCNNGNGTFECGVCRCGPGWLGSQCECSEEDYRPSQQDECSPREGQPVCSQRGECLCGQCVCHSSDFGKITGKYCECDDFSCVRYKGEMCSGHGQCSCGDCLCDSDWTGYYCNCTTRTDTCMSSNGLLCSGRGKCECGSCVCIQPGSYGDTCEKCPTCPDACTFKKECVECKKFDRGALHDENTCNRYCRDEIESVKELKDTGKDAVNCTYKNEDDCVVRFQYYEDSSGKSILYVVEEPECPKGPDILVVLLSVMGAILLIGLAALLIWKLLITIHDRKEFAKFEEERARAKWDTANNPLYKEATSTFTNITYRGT

IC50 (reference substance, isolated activated GpIIb/IIIa receptor, read-out: IC50 value in the above assay (comparative experiments)) | IC50 [1] | Compound
2500 nM | – | O=C(O)CC1(O)CCC(N2CCN(c3ccncc3)CC2)CC1 (stereo not drawn) [cis-1-hydroxy-4-[4-(4-pyridyl)-piperazin-1-yl]-acetic acid, reference compound]
– | 200 nM | O=C(O)CC1(O)CCC(N2CCC(CCCNc3ccncc3)CC2)CC1 (stereo not shown) [12 (page 35), (1-Hydroxy-4-{4-[3-(pyridin-4-ylamino)-propyl]-piperidin-1-yl}-cyclohexyl)-acetic acid]
– | 140 nM | O=C(O)CC1(O)CCC(N2CCC(Nc3ccncc3)CC2)CC1 (stereo not shown) [Example 5]
– | 300 nM | (4-{3-[(Pyridin-4-ylamino)-propyl]-piperidin-1-yl}-cyclohexyl)-acetic acid [62 (page 40)]
